“Also recorded” adds a separate entry of the source.
Experiments:
[1] = system: MAGE-A11-knockout DAOY cells or those reconstituted with MAGE-A11; assay: Cell viability, alamarBlue, DAOY cells; assay type: cell-based
Description: (§1) To assess cell viability after SJ521054 treatment, 1 × 10^4 cells/ml were treated with SJ521054 (0–40 μM) and incubated for 24 h prior to changing the media and adding alamarBlue (Thermo Fisher Scientific) and incubating for 4 h at 37 °C. Plates were read by measuring the fluorescence with excitation wavelength at 540 nm and emission wavelength at 590 nm on an Enspire plate reader.

[2] = system: HEK293FT cells stably expressing FLAG-vector or FLAG-MAGE-A11; assay: Cell viability, alamarBlue, HEK293FT cells; assay type: cell-based; details: HEK293FT FLAG-MAGE-A11 against FLAG-vector, 24 h; listed as SJ521054
Description: as §1

[3] = system: PCF11 degradation by MAGE-A11 in HEK293FT cells; assay: PCF11 degradation by MAGE-A11, immunoblot in HEK293FT cells; assay type: cell-based
Description: HEK293FT, HeLa and DAOY cells were grown in DMEM (Gibco) supplemented with 10% (v/v) FBS (Hyclone), 2 mM L-glutamine, 100 units/ml penicillin, 100 units/ml streptomycin, and […] amphotericin B (Invitrogen). HEK293FT and DAOY cells were transfected with either HA-FLAG-vector, FLAG-MAGE-A11 wild-type or SBC mutants using Effectene (QIAGEN) according to the manufacturer’s protocol in 6 cm^2 plates. After 48 h, cells were selected with 1 µg/ml puromycin (Sigma) over 2 weeks.
(§2) For western blotting, samples in SDS sample buffer were resolved on SDS-PAGE gels and then transferred to nitrocellulose membranes prior to blocking in TBST with 5% (w/v) milk powder or 3% (w/v) bovine serum albumin and probing with primary and secondary antibodies (GE Healthcare). Primary antibodies were: anti-Myc (Sigma, #C3956), anti-FLAG (Sigma, #F3165), anti-HUWE1 (Novus Biologicals, #NB 100-652), anti-PCF11 (Bethyl Laboratories, #A303-706A), anti-GAPDH (Cell Signaling Technology, #2118), anti-TRIM28 (Abcam, #ab22553), anti-AMPKα1 (Cell Signaling Technology, #2795), and anti-MMS19 (Proteintech, #16015-1-AP) and Tb-anti-GST (Invitrogen, #PV3551). Secondary antibodies were: Donkey Anti-Rabbit IgG (GE Healthcare, NA934V) and Sheep Anti-Mouse IgG (GE Healthcare, NA931V). […]

[4] = target: T1, MAGE-A3:AMPKα1 (Homo sapiens, UniProt P43357); assay: Co-IP of MAGE-A3 with AMPKα1 in cell lysate; assay type: binding; details: 100 µM, 24 h
T1 construct: expressed in transfected cells
Description: HEK293FT cells were plated in 6 cm^2 plates and transfected 24 h later with Effectene (QIAGEN) according to the manufacturer’s protocol. After 48 h, cells were washed and scraped in cold PBS, spun down, and resuspended in lysis buffer (50 mM Tris pH 7.4, 150 mM NaCl, 1 mM DTT, 0.1% (v/v) Triton X-100, 10 mM N-Ethylmaleimide, and 1X protease inhibitor cocktail (Sigma)). Cell lysates were incubated with appropriate antibodies overnight at 4 °C and then with protein A beads for 2 h at 4 °C. Beads were then washed with lysis buffer three times and eluted with 2X SDS sample buffer.
as §2

[5] = system: Caco-2 cells; assay: High throughput Caco-2 permeability; assay type: in vitro ADME
In short: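 Caco-2 monolayers on 0.4 µm Transwell inserts (TEER monitored), with compound at 10 µmol/l added apically or basolaterally in HBSS/25 mM HEPES pH 7.4, 2 h at 37 °C, triplicates. Receiver concentrations by UPLC/MS. Papp = dQ/dt × 1/AC0; efflux ratio = Papp B-A / Papp A-B.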

T1 sequence (P43357 whole entry): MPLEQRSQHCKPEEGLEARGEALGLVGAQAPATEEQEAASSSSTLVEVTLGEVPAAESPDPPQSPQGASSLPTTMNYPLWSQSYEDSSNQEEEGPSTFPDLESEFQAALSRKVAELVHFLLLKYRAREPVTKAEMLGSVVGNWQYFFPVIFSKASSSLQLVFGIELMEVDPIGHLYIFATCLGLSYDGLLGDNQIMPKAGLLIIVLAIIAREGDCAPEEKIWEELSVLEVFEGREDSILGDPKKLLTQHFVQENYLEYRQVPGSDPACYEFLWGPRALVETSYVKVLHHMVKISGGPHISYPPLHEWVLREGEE

| Compound | cell viability ([1]; DAOY cells with MAGE-A11 against vector control, 0–40 μM, 24 h, listed as SJ521054) | cytotoxicity independent of MAGE-A11 ([1]; higher concentrations, both cell lines (DAOY and HEK293)) | cell viability [2] | PCF11 protein levels / PCF11 degradation ([3]; HEK293FT cells stably expressing FLAG-MAGE-A11, 24 h, listed as SJ521054) | PCF11 protein levels ([3]; HEK293FT vector control cells, 24 h) | interaction of MAGE-A3 with AMPKα1 in cell lysate ([4]; listed as SJ521054) | cell permeability in words [5] | interaction of MAGE-A3 with AMPKα1 in cell lysate ([4]; listed as SJ1008066) |
| --- | --- | --- | --- | --- | --- | --- | --- | --- |
| FC(F)(F)c1ccc2c(NCCCNCc3ccc4[nH]ccc4c3)ccnc2c1 [SJ000521054-02] | reduces viability of MAGE-A11 expressing DAOY cancer cells; also recorded: decreased the viability of MAGE-A11 expressing DAOY and HEK293FT cells to a much greater extent than vector control MAGE-A11-negative cells | shows cytotoxicity to both cell lines | reduces viability of; also recorded: decreased the viability of MAGE-A11 expressing DAOY and HEK293FT cells to a much greater extent than vector control MAGE-A11-negative cells | blocks PCF11 degradation by MAGE-A11; also recorded: stabilized PCF11 protein levels | had no effect | do not disrupt interaction; also recorded: did not disrupt interaction |  |  |
| c1ccc2c(NCCCNCc3ccc4[nH]ccc4c3)ccnc2c1 [SJ001008066-01] |  |  |  |  |  |  | cell permeable | do not disrupt interaction; also recorded: did not disrupt interaction |
